Measurements taken from patent EP0583821A1, “Atriopeptins, guanylate cyclase activators, and phosphodiesterase inhibitors as treatment for glaucoma, hydrocephalus and cerebral edema (cranial fluid volume dysfunction)” (THE GENERAL HOSPITAL CORPORATION, priority 1987, dated 1988).

Tests used:
volunteer human = experiment: Eye drop in a volunteer human: IOP, blood pressure and pulse; format: in vivo; settings: 50µl of 0.1% aqueous solution in one eye
Procedure: The effect of administration of a nitroglycerine eye drop preparation (50µl of 0.1% aqueous solution in one eye) in a volunteer human is illustrated in Figure 14. IOP was measured by applanation pnumatonometry and blood pressure and pulse were measured by arm cuff.

rabbits [1] = experiment: Intraocular pressure and ocular observations after topical (eye drop) application; format: in vivo, rabbit
Procedure: The measurement of intraocular pressure (IOP), was performed using procedures similar to those described in Nathanson, Brit. J. Pharmacol., 73:97 (1981) and Nathanson, Current Eye Res., 4:191 (1985). Briefly, male (3-5 kg), New Zealand white rabbits were housed under standard conditions and exposed to a 12 hr light-dark cycle. IOP was measured with a Perkins applanation tonometer after topical anesthesia with 0.4% benoxinate (and 0.25% sodium fluorescein). The tonometer had been calibrated previously by connecting the anterior chamber of enucleated rabbit eyes to a manometer (and reservoir) and taking tonometer readings at different pressures. A number of preliminary IOP readings were made in order to accommodate the animals to the measurement procedure. Readings were then taken just prior to drug or vehicle injection and at 3, 9, 20, 27, 44, 51, 72, and 144 hours post-injection.
A potent PDE inhibitor of the arylxanthine class, 1,3-dibutylxanthine, was applied unilaterally and topically to rabbit eyes in a 0.5% solution. […] The IOP was decreased 4 mm (Hg) in the ipsilateral eye (Figure 8).
Again there was about a 4 mm (Hg) decrease in intraocular pressure. […] This xanthine inhibited the enzyme with an IC₅₀ (concentration necessary for 50% enzyme inhibition) of 25 uM.
(§1) The effect of nitroglycerine eye drops on rabbit intraocular pressure was also measured. The IOP of 8 conscious, male albino rabbits (3-4 kg) was measured by applanation pnumatonometry after topical anesthesia with 0.4% benoxinate. Nitroglycerine in phosphate buffered saline, pH 7.4, was given unilaterally, in two 25µl drops spaced five minutes apart. Blood pressure and pulse rate were measured by a photoelectric detector using an automated external tail cuff. […] By 24 hours, pressure had returned to normal.

rabbits [2] = experiment: Systemic blood pressure and pulse rate (tail cuff) after eye drops; format: in vivo, rabbit; settings: 0.03% eye drops
Procedure: as §1

guanylate cyclase = experiment: Guanylate cyclase activation in crude broken-cell preparation of ciliary process; format: biochemical, rabbit; settings: low concentrations
Procedure: Generally, the broken cell preparations are prepared according to the method described in a paper by Nathanson et al., (Molecular Pharmacology 20:68 (1981), which is herein incorporated by reference. Choroid epithelial cells are prepared as described in Example 1. To measure activity of atriopeptins, analogues, or agonists thereof, washed particulate cell preparations are prepared by using the pellet obtained following high speed centrifugation. To measure direct activators of guanylate cyclase, the crude broken-cell preparation without centrifugation is used. Guanylate cyclase activity is measured in appropriate buffer-containing GTP, cofactors, tissue fraction, and the compound to be tested. […] Cyclic GMP can be measured by any test which indicates the presence thereof, typically by the radioimmunoassay as described in Example 6. […] Ka^B, where B is the test compound, is compared with the constant (Ka^ANF) determined in an analogous way using rat atrial natriuretic factor (rANF) as a standard. […]
The effect of rANP on membrane-bound guanylate cyclase and adenylate cyclase activity in various brain-barrier tissues and tissue fractions from rabbit was compared with its activity in cerebrum and cerebellum. Guanylate cyclase was measured as the rate of cyclic GMP formation by modifications of the technique of Waldman et al., supra, incorporated herein by reference. […]

Compound: O=[N+]([O-])OCC(CO[N+](=O)[O-])O[N+](=O)[O-] [nitroglycerine, 1,2,3-propanetriol trinitrate]
- effect on IOP (volunteer human): significantly decreased IOP
- systemic blood pressure or pulse (volunteer human): without change
- decrease in IOP at maximum (rabbits [1]; 0.03% (gm/100ml) solution, two 25µl drops, 8 rabbits): 5.2 mm Hg
- IOP at six hours (rabbits [1]; 0.03% solution): still significantly reduced
- time of greatest IOP decrease (rabbits [1]; 0.03% solution): greatest at one hour
- time until pressure had returned to normal (rabbits [1]; 0.03% solution): ≤ 24 h
- effect of higher doses on IOP (rabbits [1]; 50µl eye drops, doses above 0.03%, Fig. 13): no additional decrease in IOP
- effect of lower doses on IOP (rabbits [1]; 50µl eye drops, lower doses, Fig. 13): less effective
- conjunctival inflammation and pupillary diameter (rabbits [1]; all doses): At no dose did conjunctival inflammation nor any change in pupillary diameter occur
- contralateral decrease in pressure relative to that seen ipsilaterally (rabbits [1]; higher doses): 40-75%
- hyperemia of the conjunctival vessels (rabbits [1]; higher doses (0.1%)): slight, transient (five minutes) hyperemia
- change in pulse rate or in systolic, diastolic or mean blood pressure (rabbits [2]): no significant change
- stimulation of basal guanylate cyclase activity (guanylate cyclase): significant stimulation
